Laboratory results taken from patent US20090198145A1, “COMPOSITIONS, METHODS, AND SYSTEMS FOR RAPID INDUCTION AND MAINTENANCE OF […] SLEEP” (priority 2008, published 2009).

Assays:
[1] = tested on: patient with chronic depression and post-traumatic stress disorder
surgical patients = settings: over 80 patients; GABA-A agonist (e.g., propofol) and adjunctive medications
Source text: This invention describes the discoveries that control, monitor, and administer the hypnotic or sedative agent such as a GABA-A agonist (e.g., propofol) and adjunctive medications at designed dosages, timing, and modes of administration to produce dreams and an unique sleep state of un-fragmented Continuous REM Sleep.

rats = settings: intravenous, over a 6 hour period; cited from earlier work
[2] = Patient A, same regimen, follow-up

CC(C)c1cccc(C(C)C)c1O [propofol, 2-6 diisopropylphenol]
patient-reported sleep recovery after the procedure ([1]; Patient A, same regimen, Continuous REM Sleep of approximately 1 hour): felt extremely rested | duration of improved ease of sleeping post-operatively [1, 2]: three | nightmares on follow-up [1, 2]: lack of nightmares | dreaming reported during the procedure ([1]; human, in vivo): profuse dreaming about gardening | achievement of Continuous REM Sleep (surgical patients): achieved Continuous REM Sleep | replication of natural sleep cycle (rats): replicate a natural sleep cycle
